One series is described as follows: in vitro. The conditions noted are these: human, CC50. The text has this:
(§1) Inspired by our previous research on heteroaromatic-biphenyl-DAPYs[15], the 4-cyanophenyl group on the biphenyl moiety was replaced with a privileged 4-pyridyl group for further evaluation.

The subject of the next series is HIV-1 (IIIB). Briefly: microbe, parasite or virus in culture. Format: cell-based. Particulars: for EC50: Human immunodeficiency virus 1, IIIB, MT4, WT HIV-1, protection of MT-4 cells against HIV-induced cytopathogenicity, mean ± SD, n ≥ 3; for SI (IIIB): selectivity index, ratio CC50/EC50.
Excerpt: as §1
(Protection from cytopathic effect is a common read-out in antiviral testing.)

A value given as a limit tells only on which side of the number the result lay.

As usually defined, the EC50 is the concentration that produces a half-maximal response.

On to `N#Cc1ccc(Nc2ncc(F)c(Oc3ccc(-c4ccc(C#N)cc4)cc3Cl)n2)cc1` [A2, 3′-Chloro-4′-((2-((4-cyanophenyl)amino)-5-fluoropyrimidin-4-yl)oxy)-[1,1′-biphenyl]-4-carbonitrile], for which the CC50 in “in vitro” is more than 45000 nM. For the same molecule, in the series on HIV-1 (IIIB), the EC50 amounted to 27 ± 25 nM and the “SI (IIIB)” value is reported as more than 1670.

For `Cc1cc(-c2ccc(C#N)cc2)ccc1Oc1nc(Nc2ccc(C#N)cc2)ncc1F` [A3, 4′-((2-((4-Cyanophenyl)amino)-5-fluoropyrimidin-4-yl)oxy)-3′-methyl-[1,1′-biphenyl]-4-carbonitrile], the CC50 in “in vitro” is more than 48000 nM. Further, in the series on HIV-1 (IIIB), the EC50 worked out at 7.6 ± 2.6 nM and the “SI (IIIB)” value is more than 6349.

With `N#Cc1ccc(Nc2ncc(F)c(Oc3c(F)cc(-c4ccc(C#N)cc4)cc3F)n2)cc1` [A5, 4′-((2-((4-Cyanophenyl)amino)-5-fluoropyrimidin-4-yl)oxy)-3′,5′-difluoro-[1,1′-biphenyl]-4-carbonitrile], in the series “in vitro”, the CC50 was more than 45000 nM. Moreover, in the series with HIV-1 (IIIB), a half-maximal effect (EC50) was put at 6.3 ± 3.2 nM and the “SI (IIIB)” value is reported as more than 7143.

For `Cc1cc(-c2ccc(C#N)cc2)cc(C)c1Oc1nc(Nc2ccc(C#N)cc2)ncc1F` [A6, 4′-((2-((4-Cyanophenyl)amino)-5-fluoropyrimidin-4-yl)oxy)-3′,5′-dimethyl-[1,1′-biphenyl]-4-carbonitrile], in “in vitro”, the CC50 was 219000 ± 12000 nM. In the series with HIV-1 (IIIB), the EC50 came to 7.1 ± 3.2 nM and the “SI (IIIB)” value is listed as 30,805.

In the series “in vitro”, `N#Cc1ccc(Nc2ncc(F)c(Nc3ccc(-c4ccc(C#N)cc4)cc3Cl)n2)cc1` [A8, 3′-Chloro-4′-((2-((4-cyanophenyl)amino)-5-fluoropyrimidin-4-yl)amino)-[1,1′-biphenyl]-4-carbonitrile] gave a CC50 of more than 45000 nM. In addition, in the series on HIV-1 (IIIB), the EC50 stood at 43 ± 23 nM and the “SI (IIIB)” value is on record as more than 1038.

For the molecule `COc1cc(-c2ccc(C#N)cc2)ccc1Nc1nc(Nc2ccc(C#N)cc2)ncc1F` [A10, 4′-((2-((4-Cyanophenyl)amino)-5-fluoropyrimidin-4-yl)amino)-3′-methoxy-[1,1′-biphenyl]-4-carbonitrile], in the series “in vitro”, the CC50 is more than 46000 nM. In addition, in the series on HIV-1 (IIIB), it took 23 ± 18 nM to reach a half-maximal effect (EC50) and the “SI (IIIB)” value is more than 1961.

In “in vitro”, `N#Cc1ccc(Nc2ncc(F)c(Oc3ccc(-c4ccncc4)cc3F)n2)cc1` [A13, 4-((5-Fluoro-4-(2-fluoro-4-(pyridin-4-yl)phenoxy)pyrimidin-2-yl)amino)benzonitrile] gave a CC50 of more than 50000 nM. In the series on HIV-1 (IIIB), the EC50 was found to be 9.7 ± 3.7 nM and the “SI (IIIB)” value is more than 5147.

Consider `N#Cc1ccc(Nc2ncc(F)c(Oc3ccc(-c4ccncc4)cc3Cl)n2)cc1` [A14, 4-((4-(2-Chloro-4-(pyridin-4-yl)phenoxy)-5-fluoropyrimidin-2-yl)amino)benzonitrile], for which the CC50 in “in vitro” was more than 48000 nM. In addition, in the series with HIV-1 (IIIB), the midpoint of the response, the EC50, lay at 12 ± 3.1 nM and the “SI (IIIB)” value is given as more than 3846.

Take `Cc1cc(-c2ccncc2)ccc1Oc1nc(Nc2ccc(C#N)cc2)ncc1F` [A15, 4-((5-Fluoro-4-(2-methyl-4-(pyridin-4-yl)phenoxy)pyrimidin-2-yl)amino)benzonitrile]: the CC50 in the series “in vitro” is more than 50000 nM. Also, in the series with HIV-1 (IIIB), the midpoint of the response, the EC50, lay at 11 ± 2.5 nM and the “SI (IIIB)” value was more than 4734.

As to `N#Cc1ccc(Nc2ncc(F)c(Oc3c(F)cc(-c4ccncc4)cc3F)n2)cc1` [A17, 4-((4-(2,6-Difluoro-4-(pyridin-4-yl)phenoxy)-5-fluoropyrimidin-2 yl)amino)benzonitrile], the CC50 in the series “in vitro” is more than 48000 nM. In the series with HIV-1 (IIIB), the EC50 came out at 11 ± 4.1 nM and the “SI (IIIB)” value is more than 4396.

`Cc1cc(-c2ccncc2)cc(C)c1Oc1nc(Nc2ccc(C#N)cc2)ncc1F` [A18, 4-((4-(2,6-Dimethyl-4-(pyridin-4-yl)phenoxy)-5-fluoropyrimidin-2-yl)amino)benzonitrile] had a CC50 in “in vitro” of more than 49000 nM. Moreover, in the series on HIV-1 (IIIB), the half-maximal effective concentration (EC50) came to 56 ± 44 nM and the “SI (IIIB)” value was more than 868.

Consider `N#Cc1ccc(Nc2ncc(F)c(Nc3ccc(-c4ccncc4)cc3F)n2)cc1` [A19, 4-((5-Fluoro-4-((2-fluoro-4-(pyridin-4-yl)phenyl)amino)pyrimidin-2-yl)amino)benzonitrile], for which, in the series “in vitro”, the CC50 was more than 50000 nM. Besides, in the series on HIV-1 (IIIB), a half-maximal response (EC50) required 18 ± 14 nM and the “SI (IIIB)” value is on record as more than 2765.

Molecule `N#Cc1ccc(Nc2ncc(F)c(Nc3ccc(-c4ccncc4)cc3Cl)n2)cc1` [A20, 4-((4-((2-Chloro-4-(pyridin-4-yl)phenyl)amino)-5-fluoropyrimidin-2-yl)amino)benzonitrile] gave a CC50 in “in vitro” of more than 48000 nM. Further, in the series with HIV-1 (IIIB), the EC50 came to 10 ± 1.7 nM and the “SI (IIIB)” value was more than 4819.

For `Cc1cc(-c2ccncc2)ccc1Nc1nc(Nc2ccc(C#N)cc2)ncc1F` [A21, 4-((5-Fluoro-4-((2-methyl-4-(pyridin-4-yl)phenyl)amino)pyrimidin-2-yl)amino)benzonitrile], the CC50 in the series “in vitro” is more than 51000 nM. Moreover, in the series with HIV-1 (IIIB), the response was half-maximal at 6.1 ± 1.3 nM (EC50) and the “SI (IIIB)” value is more than 8421.

Turning to `COc1cc(-c2ccncc2)ccc1Nc1nc(Nc2ccc(C#N)cc2)ncc1F` [A22, 4-((5-Fluoro-4-((2-methoxy-4-(pyridin-4-yl)phenyl)amino)pyrimidin-2-yl)amino)benzonitrile], the CC50 in the series “in vitro” is more than 49000 nM. In the series with HIV-1 (IIIB), the half-maximal effective concentration (EC50) was determined as 8 ± 2.7 nM and the “SI (IIIB)” value is on record as more than 6154.

The molecule `N#Cc1ccc(Nc2ncc(F)c(Nc3c(F)cc(-c4ccncc4)cc3F)n2)cc1` [A23, 4-((4-((2,6-Difluoro-4-(pyridin-4-yl)phenyl)amino)-5-fluoropyrimidin-2-yl)amino)benzonitrile] came in with a CC50 in the series “in vitro” of 21000 ± 18000 nM. The molecule also had an EC50 in the series with HIV-1 (IIIB) of 7.6 ± 1.2 nM.

In “in vitro”, `N#Cc1ccc(Nc2ncc(Cl)c(Oc3ccc(-c4ccc(C#N)cc4)cc3F)n2)cc1` [B1, 4′-((5-Chloro-2-((4-cyanophenyl)amino)pyrimidin-4-yl)oxy)-3′-fluoro-[1,1′-biphenyl]-4-carbonitrile] showed a CC50 of 39000 ± 12000 nM. In the series on HIV-1 (IIIB), the EC50 was found to be 8.4 ± 3.4 nM and the “SI (IIIB)” value is listed as 4572.

The molecule `N#Cc1ccc(Nc2ncc(Cl)c(Oc3ccc(-c4ccc(C#N)cc4)cc3Cl)n2)cc1` [B2, 3′-Chloro-4′-((5-chloro-2-((4-cyanophenyl)amino)pyrimidin-4-yl)oxy)-[1,1′-biphenyl]-4-carbonitrile] returned a CC50 in the series “in vitro” of 35000 ± 7300 nM. For the same molecule, in the series with HIV-1 (IIIB), the EC50 is 8.7 ± 2 nM and the “SI (IIIB)” value stood at 3949.

As for `Cc1cc(-c2ccc(C#N)cc2)ccc1Oc1nc(Nc2ccc(C#N)cc2)ncc1Cl` [B3, 4′-((5-Chloro-2-((4-cyanophenyl)amino)pyrimidin-4-yl)oxy)-3′-methyl-[1,1′-biphenyl]-4-carbonitrile], the CC50 in “in vitro” is more than 46000 nM. Besides, in the series on HIV-1 (IIIB), the EC50 was determined as 7.1 ± 1.6 nM and the “SI (IIIB)” value is reported as more than 6542.

`COc1cc(-c2ccc(C#N)cc2)ccc1Oc1nc(Nc2ccc(C#N)cc2)ncc1Cl` [B4, 4′-((5-Chloro-2-((4-cyanophenyl)amino)pyrimidin-4-yl)oxy)-3′-methoxy-[1,1′-biphenyl]-4-carbonitrile] showed a CC50 in the series “in vitro” of 11000 ± 3700 nM. Further, in the series on HIV-1 (IIIB), a half-maximal effect (EC50) was put at 26 ± 13 nM and the “SI (IIIB)” value was 412.

`Cc1cc(-c2ccc(C#N)cc2)cc(C)c1Oc1nc(Nc2ccc(C#N)cc2)ncc1Cl` [B5, 4′-((5-Chloro-2-((4-cyanophenyl)amino)pyrimidin-4-yl)oxy)-3′,5′-dimethyl-[1,1′-biphenyl]-4-carbonitrile] had a CC50 in the series “in vitro” of 39000 ± 9100 nM. Moreover, in the series with HIV-1 (IIIB), it took 11 ± 4.2 nM to reach a half-maximal effect (EC50) and the “SI (IIIB)” value was 3478.

For the origin of these results see publication PMC12399242 (Acta Pharmaceutica Sinica. B, 2025).
